tested on: EMT6; test: Reversal effect on the accumulation of [3H]- daunorubicin in mouse mammary carcinoma cell line EMT6/AR 1.0; type: functional, cell-based; conditions: not given

`COc1cc2c(cc1OC)CN(CCc1ccc(NC(=O)c3cc(OC)c(OC)cc3NC(=O)c3cnc4ccccc4c3)cc1)CC2` [TARIQUIDAR] was tested, and the IC50 was 38 nM.

same assay, conditions: read-out: IC50

In order of falling IC50:
1. COc1cc2c(cc1OC)CN(CCNC(=O)c1ccccc1NC(=O)c1ccccc1)CC2  6800 nM
2. COc1ccc(CCn2c(-c3ccc(N(C)C)cc3)nc3ccccc3c2=O)cc1OC  5000 nM
3. COc1cc2c(cc1OC)CN(CCc1ccc(NC(=O)c3ccccc3NC(=O)c3cc4ccccc4cn3)cc1)CC2  4900 nM
4. COc1cc2c(cc1OC)CN(CCc1ccc(NC(=O)c3ccccc3NC(=O)c3ccco3)cc1)CC2  3300 nM
5. COc1cc2c(cc1OC)CN(CCc1ccc(NC(=O)c3ccccc3Oc3ccccc3)cc1)CC2  2700 nM
6. COc1cc2c(cc1OC)CN(CCNC(=O)c1ccccc1NC(=O)c1ccc(N(C)C)cc1)CC2  2400 nM
7. COc1cc2c(cc1OC)CN(CCc1ccc(NC(=O)c3ccccc3Sc3ccccc3)cc1)CC2  2300 nM
8. COc1cc2c(cc1OC)CN(CCc1ccc(NC(=O)c3ccccc3-c3ccccc3)cc1)CC2  1700 nM
9. COc1cc2c(cc1OC)CN(CCNC(=O)c1ccccc1NC(=O)c1ccc(C3CCCCC3)cc1)CC2  1600 nM
10. COc1cc2c(cc1OC)CN(CCc1ccc(NC(=O)c3ccccc3C(=O)c3ccccc3)cc1)CC2  1100 nM
11. COc1cc2c(cc1OC)CN(CCNC(=O)c1ccccc1NC(=O)c1ccc(C(C)C)cc1)CC2  1100 nM
12. COc1cc2c(cc1OC)CN(CCc1ccc(NC(=O)c3ccccc3NC(=O)c3ccoc3)cc1)CC2  920 nM
13. COc1cc2c(cc1OC)CN(CCc1ccc(NC(=O)c3ccccc3NC(=O)c3cccnc3)cc1)CC2  880 nM
14. COc1cc2c(cc1OC)CN(CCc1ccc(NC(=O)c3ccccc3NC(=O)c3ccc(C(C)C)cc3)cc1)CC2  850 nM
15. COc1cc2c(cc1OC)CN(CCc1ccc(NC(=O)c3ccccc3NC(=O)c3ccc4ccccc4n3)cc1)CC2  790 nM
16. COc1cc2c(cc1OC)CN(CCc1ccc(NC(=O)c3ccccc3NC(=O)c3ccsc3)cc1)CC2  730 nM
17. COc1cc2c(cc1OC)CN(CCc1ccc(NC(=O)c3ccccc3NC(=O)c3ccccn3)cc1)CC2  680 nM
18. COc1cc2c(cc1OC)CN(CCc1ccc(NC(=O)c3cc(N(C)C)ccc3NC(=O)c3cnc4ccccc4c3)cc1)CC2  293 nM
19. COc1cc2c(cc1OC)CN(CCc1ccc(NC(=O)c3ccccc3NC(=O)c3ccccc3)cc1)CC2  250 nM
20. COc1cc2c(cc1OC)CN(CCc1ccc(NC(=O)c3cccc(/C=c4\[nH]c(=O)/c(=C/c5ccccc5)n(C)c4=O)c3)cc1)CC2  220 nM
21. COc1cc2c(cc1OC)CN(CCc1ccc(NC(=O)c3cc(C)ccc3NC(=O)c3cnc4ccccc4c3)cc1)CC2  220 nM
22. COc1cc2c(cc1OC)CN(CCc1ccc(NC(=O)c3ccccc3NC(=O)c3cnccn3)cc1)CC2  204 nM
23. COc1cc2c(cc1OC)CN(CCc1ccc(NC(=O)c3cc(Cl)ccc3NC(=O)c3cnc4ccccc4c3)cc1)CC2  149 nM
24. COc1cc2c(cc1OC)CN(CCc1ccc(NC(=O)c3ccc(Cl)cc3NC(=O)c3cnc4ccccc4c3)cc1)CC2  141 nM
25. COc1cc2c(cc1OC)CN(CCc1ccc(NC(=O)c3ccccc3NC(=O)c3cnc4ccccc4n3)cc1)CC2  92 nM
26. COc1cc2c(cc1OC)CN(CCc1ccc(NC(=O)c3ccccc3NC(=O)c3cnc4ccccc4c3)cc1)CC2  87 nM
27. COc1cc2c(cc1OC)CN(CCc1ccc(NC(=O)c3ccccc3NC(=O)c3cnc(C)cn3)cc1)CC2  67 nM
28. COc1cc2c(cc1OC)CN(CCc1ccc(NC(=O)c3ccccc3NC(=O)c3ccc(C)nc3)cc1)CC2  67 nM
29. COc1cc2c(cc1OC)CN(CCc1ccc(NC(=O)c3cc(F)ccc3NC(=O)c3cnc4ccccc4c3)cc1)CC2  60 nM
30. COc1cc2c(cc1OC)CN(CCc1ccc(NC(=O)c3ccc([N+](=O)[O-])cc3NC(=O)c3cnc4ccccc4c3)cc1)CC2  45 nM
31. COc1cc2c(cc1OC)CN(CCc1ccc(NC(=O)c3ccc(F)cc3NC(=O)c3cnc4ccccc4c3)cc1)CC2  38 nM

tested on: MDR; test: Potency tested against multidrug resistance (MDR) cell lines expressing P-gp (P-glycoprotein); type: functional, cell-based; conditions: not given

In order of falling EC50:
1. COc1cc2c(cc1OC)CN(CCc1ccc(NC(=O)c3ccccc3NC(=O)c3cnc4ccccc4c3)cc1)CC2  30 nM
2. COc1cc2c(cc1OC)CN(CCc1ccc(NC(=O)c3cc(F)ccc3NC(=O)c3cnc4ccccc4c3)cc1)CC2  27 nM
3. COc1cc2c(cc1OC)CN(CCc1ccc(NC(=O)c3ccccc3NC(=O)c3cnc4ccccc4n3)cc1)CC2  19 nM
4. COc1cc2c(cc1OC)CN(CCc1ccc(NC(=O)c3cc(OC)c(OC)cc3NC(=O)c3cnc4ccccc4c3)cc1)CC2 [TARIQUIDAR]  16.3 nM

Source: ChEMBL document CHEMBL1131950, “Reversal of P-glycoprotein mediated multidrug resistance by novel anthranilamide derivatives” (Bioorg Med Chem Lett, 1999)
